Patent publication US20220062240A1, “METHODS OF TREATING CANCER USING A CLK INHIBITOR” (BioSplice Therapeutics, Inc., priority 2018, published 2022)
Like-named read-outs stand apart in the source and are kept apart here.

Assays:
[1] = molecular target: T1, CLK2 (Homo sapiens, UniProt P49760); assay: CLK2 kinase activity assay (Z-lyte, Ser/Thr 6 peptide); format: biochemical; conditions: recombinant CLK2 kinase, ATP 60 μM; read-out: EC50
T1 construct: purchased Thermo Fisher (Life Technologies), Z'-LYTE Kinase Assay Kits
Procedure: All reactions were performed in duplicate.

[2] = test system: all 50 cell lines; assay: CellTiter-Glo Viability Assay, average across all cell lines; format: cell-based; conditions: Homo sapiens; across all 50 cell lines; read-out: average EC50 for inhibition of cancer cell proliferation
How it was run: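 Luminescent ATP read-out (CellTiter-Glo) after a 4-day compound exposure at 37° C served as the viability measure. Cells were seeded at 300-3,000/well, compound wells run in duplicate against DMSO controls, and EC50 values came from fitted dose-response curves.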

[3] = test system: pancreatic cancer (8 cell lines); assay: CellTiter-Glo Viability Assay, pancreatic cancer; format: cell-based; conditions: Homo sapiens, inhibition of cancer cell proliferation
[4] = test system: ovarian cancer (4 cell lines); assay: CellTiter-Glo Viability Assay, ovarian cancer; format: cell-based; conditions: Homo sapiens, inhibition of cancer cell proliferation
[5] = test system: colorectal cancer (6 cell lines); assay: CellTiter-Glo Viability Assay, colorectal cancer; format: cell-based; conditions: Homo sapiens, inhibition of cancer cell proliferation
[6] = test system: lung cancer (4 cell lines); assay: CellTiter-Glo Viability Assay, lung cancer; format: cell-based; conditions: Homo sapiens, inhibition of cancer cell proliferation
[7] = test system: MCF7; assay: CellTiter-Glo Viability Assay, breast cancer; format: cell-based; conditions: Homo sapiens, 96 h; MCF7, breast cancer, four days; read-out: EC50
[8] = test system: MDA-MB-231-Luc; assay: CellTiter-Glo Viability Assay, breast cancer; format: cell-based; conditions: Homo sapiens, 96 h; MDA-MB-231-Luc, breast cancer, four days; read-out: EC50
[9] = test system: HCC1599; assay: CellTiter-Glo Viability Assay, breast cancer; format: cell-based; conditions: Homo sapiens, 96 h; HCC1599, breast cancer, four days; read-out: EC50
[10] = test system: CAMA1; assay: CellTiter-Glo Viability Assay, breast cancer; format: cell-based; conditions: Homo sapiens, CAMA-1, 96 h; CAMA1, breast cancer, four days; read-out: EC50
[11] = test system: BT-549; assay: CellTiter-Glo Viability Assay, breast cancer; format: cell-based; conditions: Homo sapiens, 96 h; BT-549, breast cancer, four days; read-out: EC50
[12] = test system: T47D; assay: CellTiter-Glo Viability Assay, breast cancer; format: cell-based; conditions: Homo sapiens, 96 h, breast cancer, four days, read-out: EC50
[13] = test system: ZR-75-1; assay: CellTiter-Glo Viability Assay, breast cancer; format: cell-based; conditions: Homo sapiens, 96 h; ZR-75-1, breast cancer, four days; read-out: EC50
[14] = test system: DU4475; assay: CellTiter-Glo Viability Assay, breast cancer; format: cell-based; conditions: Homo sapiens, DU-4475, 96 h; DU4475, breast cancer, four days; read-out: EC50
[15] = test system: liver cancer (3 cell lines); assay: CellTiter-Glo Viability Assay, liver cancer; format: cell-based; conditions: Homo sapiens, inhibition of cancer cell proliferation
[16] = test system: prostate cancer (5 cell lines); assay: CellTiter-Glo Viability Assay, prostate cancer; format: cell-based; conditions: Homo sapiens
[17] = test system: haematopoietic & lymphoid tumors (13 cell lines); assay: CellTiter-Glo Viability Assay, haematopoietic & lymphoid tumors; format: cell-based; conditions: Homo sapiens, inhibition of cancer cell proliferation
[18] = molecular target: CLK3 (Homo sapiens, UniProt P49761); assay: CLK3 kinase activity assay (Z-lyte, Ser/Thr 18 peptide)
Procedure: Each compound was dissolved in DMSO as a 10 mM stock and used to prepare compound source plates.
This is a non-radioactive assay using fluorescence resonance energy transfer (FRET) between coumarin and fluorescein to detect kinase activity which is represented as a ratio of coumarin emission/fluorescein emission.
All reactions were performed in duplicate. Unphosphorylated (“0% Control”) and phosphorylated (“100% control”) forms of Ser/Thr 18 served as control reactions. Additionally, an 11-point dose-response curve of Staurosporine (1 uM top) was run to serve as a positive compound control.
After incubation, Development Reagent A was diluted in Development Buffer then added to the reaction and allowed to further incubate for one hour at room temperature.
Dose-response curves were generated and inhibitory concentration (IC50) values were calculated using non-linear regression curve fit in the Dotmatics' Studies Software (Bishops Stortford, UK).
Compounds were acoustically transferred on 1536-well plates (Echo 550, LabCyte) instrument. Kinase, peptide, and ATP reagents from the Z′-LYTE Kinase Assay Kits (Thermo Fisher) were dispensed onto the compound plates using an EL406 liquid dispenser (BioTek). Plates were incubated in the dark at room temperature for 1 hr. Development reagent was added to the plates and then incubated in the dark at room temperature for 1 hr. Fluorescence signal form the plate was then read using an EnVision Multilabel Plate Reader (Perkin Elmer).

[19] = BXPC-3, BxPC3 cell line, read-out: Pancreatic cancer, EC50 BxPC3
[20] = CAPAN-1, Capan1 cell line, read-out: Pancreatic cancer, EC50 Capan1
[21] = Capan-2, Capan2 cell line, read-out: Pancreatic cancer, EC50 Capan2
[22] = MIA PaCa-2 cell line, read-out: Pancreatic cancer, EC50 MIA PaCa-2
[23] = PANC 05.04 cell line, read-out: Pancreatic cancer, EC50 PANC 05.04
[24] = PANC-1 cell line, read-out: Pancreatic cancer, EC50 PANC-1
[25] = UPAFII cell line, read-out: Pancreatic cancer, EC50 UPAFII
[26] = PA-1, PA1 cell line, read-out: Ovarian cancer, EC50 (μM) PA1
[27] = TOV112D, TOV-112D cell line, read-out: Ovarian cancer, EC50 (μM) TOV-112D
[28] = OV-90 cell line, read-out: Ovarian cancer, EC50 (μM) OV-90
[29] = OVCAR-3 cell line, read-out: Ovarian cancer, EC50 (μM) OVCAR-3
[30] = HCT-116, HCT116 cell line, read-out: Colorectal cancer, EC50 (μM) HCT116
[31] = HT-29, HT29 cell line, read-out: Colorectal cancer, EC50 (μM) HT29
[32] = SW-620, SW620 cell line, read-out: Colorectal cancer, EC50 (μM) SW620
[33] = DLD-1 cell line, read-out: Colorectal cancer, EC50 (μM) DLD-1
[34] = SW48 cell line, read-out: Colorectal cancer, EC50 (μM) SW48
[35] = SW480 cell line, read-out: Colorectal cancer, EC50 (μM) SW480
[36] = A-427, A427 cell line, read-out: Lung cancer, EC50 (μM) A427
[37] = HCC78, HCC-78 cell line, read-out: Lung cancer, EC50 (μM) HCC-78
[38] = NCI-H460 cell line, read-out: Lung cancer, EC50 (μM) NCI-H460
[39] = NCI-H522 cell line, read-out: Lung cancer, EC50 (μM) NCI-H522
[40] = SNU-398, SNU398 cell line, read-out: Liver cancer, EC50 SNU398
[41] = HEPG2 cell line, read-out: Liver cancer, EC50 HEPG2
[42] = PLC/PRF/5 cell line, read-out: Liver cancer, EC50 PLC/PRF/5
[43] = DU-145, read-out: Prostate cancer EC50 Du-145
[44] = PC-3, PC3 cell line, inhibition of cancer cell proliferation, read-out: Prostate cancer EC50 PC3
[45] = 22Rv1 cell line, inhibition of cancer cell proliferation, read-out: Prostate cancer EC50 22Rv1
[46] = LNCap clone FGC cell line, inhibition of cancer cell proliferation, read-out: Prostate cancer EC50 LNCap clone FGC
[47] = VCaP (Sigma) cell line, inhibition of cancer cell proliferation, read-out: Prostate cancer EC50 VCaP (Sigma)
[48] = DND41, DND-41 cell line, read-out: Haematopoietic & Lymphoid tumors, EC50 (μM) DND-41
[49] = MV4-11, MV-4-11 cell line, read-out: Haematopoietic & Lymphoid tumors, EC50 (μM) MV-4-11
[50] = Rec1, REC-1 cell line, read-out: Haematopoietic & Lymphoid tumors, EC50 (μM) REC-1
[51] = SU-DHL-4, SUDHL4 cell line, read-out: Haematopoietic & Lymphoid tumors, EC50 (μM) SUDHL4
[52] = HL-60 cell line, read-out: Haematopoietic & Lymphoid tumors, EC50 (μM) HL-60
[53] = JM1 cell line, read-out: Haematopoietic & Lymphoid tumors, EC50 (μM) JM1
[54] = JURKAT, Clone E6-1 cell line, read-out: Haematopoietic & Lymphoid tumors, EC50 (μM) JURKAT, Clone E6-1
[55] = JeKo-1 cell line, read-out: Haematopoietic & Lymphoid tumors, EC50 (μM) JeKo-1
[56] = KASUMI-1 cell line, read-out: Haematopoietic & Lymphoid tumors, EC50 (μM) KASUMI-1
[57] = Loucy cell line, read-out: Haematopoietic & Lymphoid tumors, EC50 (μM) Loucy
[58] = MOLT-4 cell line, read-out: Haematopoietic & Lymphoid tumors, EC50 (μM) MOLT-4
[59] = TF-1 cell line, read-out: Haematopoietic & Lymphoid tumors, EC50 (μM) TF-1
[60] = TOLEDO cell line, read-out: Haematopoietic & Lymphoid tumors, EC50 (μM) TOLEDO

CLK3, sequence (P49761 whole entry): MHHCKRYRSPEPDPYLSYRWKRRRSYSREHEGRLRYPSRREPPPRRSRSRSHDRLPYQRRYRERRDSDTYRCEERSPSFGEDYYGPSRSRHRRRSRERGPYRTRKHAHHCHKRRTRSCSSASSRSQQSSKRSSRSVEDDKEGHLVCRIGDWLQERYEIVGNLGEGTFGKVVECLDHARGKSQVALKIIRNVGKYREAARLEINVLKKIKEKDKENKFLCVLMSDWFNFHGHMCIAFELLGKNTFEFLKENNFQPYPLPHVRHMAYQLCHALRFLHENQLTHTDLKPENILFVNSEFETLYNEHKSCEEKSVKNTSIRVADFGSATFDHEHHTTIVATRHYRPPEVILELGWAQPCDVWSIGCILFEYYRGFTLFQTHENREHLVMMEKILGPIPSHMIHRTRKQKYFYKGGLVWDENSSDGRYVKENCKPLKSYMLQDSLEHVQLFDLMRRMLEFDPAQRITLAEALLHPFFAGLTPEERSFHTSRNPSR
T1 sequence (P49760 whole entry): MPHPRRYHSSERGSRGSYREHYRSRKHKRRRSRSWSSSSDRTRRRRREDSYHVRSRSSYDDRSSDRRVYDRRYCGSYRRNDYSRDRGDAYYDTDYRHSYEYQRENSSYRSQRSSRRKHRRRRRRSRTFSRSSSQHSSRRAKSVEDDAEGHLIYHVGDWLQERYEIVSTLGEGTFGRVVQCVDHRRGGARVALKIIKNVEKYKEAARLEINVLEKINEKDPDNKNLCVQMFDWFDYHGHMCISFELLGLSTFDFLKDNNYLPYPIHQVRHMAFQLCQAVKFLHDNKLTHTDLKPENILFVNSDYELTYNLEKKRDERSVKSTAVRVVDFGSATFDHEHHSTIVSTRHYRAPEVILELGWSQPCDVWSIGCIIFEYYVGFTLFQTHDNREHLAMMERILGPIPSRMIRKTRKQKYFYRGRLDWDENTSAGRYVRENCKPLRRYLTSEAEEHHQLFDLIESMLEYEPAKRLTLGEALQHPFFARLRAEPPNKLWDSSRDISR

`Cc1ncc(-c2ccc3cnc(NC(=O)c4cnn(C5CCN(C)CC5)c4)cc3c2)o1` [Compound 83] showed an EC50 [1] of 2.9 nM, an EC50 [2] of 182 nM and an EC50 [3, 19] of 254 nM. It also gave an EC50 [3, 20] of 198 nM, an EC50 [3, 21] of 321 nM and an EC50 [3, 22] of 91 nM. The EC50 [3, 23] was 169 nM, the EC50 [3, 24] was 291 nM and the EC50 [3, 25] was 140 nM. It also gave an EC50 [4, 26] of 0.17 µM, an EC50 [4, 27] of 0.121 µM and an EC50 [4, 28] of 0.234 µM. For the same compound, the EC50 [4, 29] was 0.11 µM, the EC50 [5, 30] was 0.102 µM and the EC50 [5, 31] was 0.182 µM. The EC50 [5, 32] was 0.065 µM, the EC50 [5, 33] was 0.145 µM and the EC50 [5, 34] was 0.058 µM. It also gave an EC50 [5, 35] of 0.117 µM, an EC50 [6, 36] of 0.275 µM and an EC50 [6, 37] of 0.173 µM. For the same compound, the EC50 [6, 38] was 0.197 µM, the EC50 [6, 39] was 0.105 µM and the EC50 [7] was 491 nM. The EC50 [8] was 193 nM, the EC50 [9] was 99 nM and the EC50 [10] was 304 nM. The EC50 [11] was 176 nM, the EC50 [12] was 253 nM and the EC50 [13] was 220 nM. For the same compound, the EC50 [14] was 145 nM, the EC50 [15, 40] was 50 nM and the EC50 [15, 41] was 107 nM. The EC50 [15, 42] was 314 nM, the EC50 [16, 43] was 199 nM and the EC50 [16, 44] was 195 nM. The EC50 [16, 45] was 140 nM, the EC50 [16, 46] was 330 nM and the EC50 [16, 47] was 255 nM. For the same compound, the EC50 [17, 48] was 0.185 µM, the EC50 [17, 49] was 0.033 µM and the EC50 [17, 50] was 0.065 µM. It also gave an EC50 [17, 51] of 0.151 µM, an EC50 [17, 52] of 0.409 µM and an EC50 [17, 53] of 0.064 µM. For the same compound, the EC50 [17, 54] was 0.353 µM, the EC50 [17, 55] was 0.064 µM and the EC50 [17, 56] was 0.129 µM. The EC50 [17, 57] was 0.135 µM, the EC50 [17, 58] was 0.196 µM and the EC50 [17, 59] was 0.256 µM. For the same compound, the EC50 [17, 60] was 0.087 µM and the EC50 [18] was 13.6 nM.

Compound `CN1CCN(c2ccc(NC(=O)c3n[nH]c4ccc(-c5cncc(NC(=O)C6CC6)c5)cc34)cn2)CC1` [Compound 60] has an EC50 [1] of 0.9 nM, an EC50 [2] of 1070 nM and an EC50 [3, 19] of 2680 nM. The EC50 [3, 20] was 1900 nM, the EC50 [3, 21] was 1280 nM and the EC50 [3, 22] was 331 nM. It also gave an EC50 [3, 23] of 1170 nM, an EC50 [3, 24] of 3850 nM and an EC50 [3, 25] of 397 nM. It also gave an EC50 [4, 26] of 0.405 µM, an EC50 [4, 27] of 0.475 µM and an EC50 [4, 28] of 1.08 µM. It also gave an EC50 [4, 29] of 0.116 µM, an EC50 [5, 30] of 0.639 µM and an EC50 [5, 31] of 2.52 µM. For the same compound, the EC50 [5, 32] was 0.455 µM, the EC50 [5, 33] was 1.76 µM and the EC50 [5, 34] was 0.174 µM. It also gave an EC50 [5, 35] of 0.486 µM, an EC50 [6, 36] of 0.35 µM and an EC50 [6, 37] of 1.69 µM. For the same compound, the EC50 [6, 38] was 2.65 µM, the EC50 [6, 39] was 0.191 µM and the EC50 [7] was 1600 nM. It also gave an EC50 [8] of 557 nM, an EC50 [9] of 57 nM and an EC50 [10] of 252 nM. The EC50 [11] was 734 nM, the EC50 [12] was 296 nM and the EC50 [13] was 738 nM. The EC50 [14] was 169 nM, the EC50 [15, 40] was 120 nM and the EC50 [15, 41] was 452 nM. It also gave an EC50 [15, 42] of 2030 nM, an EC50 [16, 43] of 1190 nM and an EC50 [16, 44] of 831 nM. The EC50 [16, 45] was 360 nM, the EC50 [16, 46] was 4240 nM and the EC50 [16, 47] was 3470 nM. For the same compound, the EC50 [17, 48] was 0.154 µM, the EC50 [17, 49] was 0.088 µM and the EC50 [17, 50] was 1.45 µM. The EC50 [17, 51] was 0.641 µM, the EC50 [17, 52] was 3.24 µM and the EC50 [17, 53] was 0.121 µM. For the same compound, the EC50 [17, 54] was 1.42 µM, the EC50 [17, 55] was 0.039 µM and the EC50 [17, 56] was 0.685 µM. For the same compound, the EC50 [17, 57] was 0.207 µM, the EC50 [17, 58] was 0.503 µM and the EC50 [17, 59] was 3.05 µM. For the same compound, the EC50 [17, 60] was 0.219 µM and the EC50 [18] was 12.8 nM.
